Measured values: PubChem BioAssay AID504752 (National Center for Advancing Translational Sciences (NCATS), 2011)

Assay: Inhibitors of Cruzain: PBS Stability Profiling Assay
Details: PBS pH 7 stability, 37 C, LC-MS/MS, 48 h; at 2 µM; active compounds read high
Text: Chagas Disease is a neglected tropical disease that affects over 16 million people in Latin America. The cysteine protease cruzain is essential for the survival Trypanosoma cruzi, the parasitic agent responsible for Chagas disease. Potential intervention for T. cruzi includes the inhibition of cruzain. This bioassay will summarize the ongoing development of small molecule cruzain inhbitiors. Currently, a screen of ~200k compounds and through extensive follow-up work a probe was identified. To further characterize the probe, it was tested in in vitro ADME assays. The stability of the lead compound in PBS buffer is tested because this parameter has a significant impact on many ADME-concerned properties of drugs, such as uptake, distribution, transport, and eventually bioavailability. NIH Chemical Genomics Center [NCGC] NIH Molecular Libraries Probe Production Centers Network [MLPCN] MLSCN Grant: DA024891-01 PI Name: Dr. Brian Shoichet; University of California, San Francisco
2uM of compound is incubated in PBS buffer at pH 7; the reference compound is procaine. Compounds are incubated at 37 deg C for the pre-determined time periods and the when aliquots are removed. Samples are analyzed with LC-MS/MS.

Work on Cc1ccc(OCCn2c(CCNC(=O)C3CCCCC3)nc3ccccc32)cc1 yielded a percent remaining of 100%.
